From PubChem BioAssay (NCI) come the findings set out here.

Among the test systems are MCF7 breast; NCI-H522 lung; KM12 colon; SF-295 CNS; OVCAR-8 ovarian; T-47D breast; RXF 393 renal; HOP-62 NSCLC; SNB-19 CNS; ACHN renal; MOLT-4 leukemia; SK-MEL-5 melanoma; U251 CNS; EKVX NSCLC; OVCAR-4 ovarian; PC-3 prostate; TK-10 renal; HS 578T breast.
Test in all cases: NCI tumour cell line growth inhibition, 48 h

The structures appear in SMILES notation.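 96-well plates; 48 h exposure; 5 concentrations. Endpoints by linear interpolation between flanking doses. Not reached: highest tested concentration assigned. TGI marks complete inhibition of growth.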

Turning to `CCOC(=O)/C(=C\c1ccnc2ccccc12)P(=O)(OCC)OCC`, the TGI in the assay on MCF7 breast came out at 14.7 µM; with NCI-H522 lung, 3.18 µM; in the assay with KM12 colon it was 13.9 µM; with SF-295 CNS, 10.5 µM; with OVCAR-8 ovarian it was 7.96 µM; with T-47D breast, 9.11 µM. Further, the TGI is 4.41 µM in the assay on RXF 393 renal; 5.91 µM in the assay with HOP-62 NSCLC; 15.3 µM in the assay on SNB-19 CNS; 4.82 µM in the assay on ACHN renal; over 100 µM in the assay on MOLT-4 leukemia; 10.7 µM in the assay with SK-MEL-5 melanoma. The TGI in the assay on U251 CNS amounted to 9.51 µM; with EKVX NSCLC it was 15.1 µM; with OVCAR-4 ovarian, 6.61 µM; with PC-3 prostate, 16.8 µM; with TK-10 renal, 14 µM; in the assay with HS 578T breast, 8.63 µM.

Turning to `CC(C)Oc1c(C2(c3ccccc3O)SCCCS2)c(=O)c1=O`, the TGI with MCF7 breast was over 100 µM; in the assay with NCI-H522 lung, 58.9 µM; with KM12 colon it was over 100 µM; in the assay on SF-295 CNS, over 100 µM; in the assay on OVCAR-8 ovarian it was over 100 µM; with T-47D breast, over 100 µM. The TGI in the assay on RXF 393 renal, with HOP-62 NSCLC, in the assay with SNB-19 CNS, in the assay with ACHN renal, in the assay on MOLT-4 leukemia and in the assay with SK-MEL-5 melanoma was over 100 µM throughout. Also, the TGI in the assay with U251 CNS, in the assay on EKVX NSCLC, in the assay with OVCAR-4 ovarian, in the assay with PC-3 prostate, in the assay on TK-10 renal and with HS 578T breast was over 100 µM throughout.

As for `C=CCOc1ccc(C2(c3ccc(OCC=C)cc3)C(=O)Nc3ccccc32)cc1`, the TGI in the assay on MCF7 breast, in the assay on NCI-H522 lung, in the assay with KM12 colon, in the assay on SF-295 CNS, in the assay on OVCAR-8 ovarian and in the assay on T-47D breast was over 10 µM in each case. Moreover, the TGI with RXF 393 renal, with HOP-62 NSCLC, in the assay with SNB-19 CNS, in the assay with ACHN renal, in the assay with MOLT-4 leukemia and in the assay with SK-MEL-5 melanoma was over 10 µM throughout. Further, the TGI was over 10 µM in the assay on U251 CNS; over 10 µM in the assay with EKVX NSCLC; over 10 µM with OVCAR-4 ovarian; over 10 µM in the assay with PC-3 prostate; over 10 µM with TK-10 renal; 6.38 µM in the assay on HS 578T breast.

For `O=C1N(CN2CCOCC2)CN(CN2CCOCC2)C(=O)N1Cc1ccc(-c2ccc(CN3C(=O)N(CN4CCOCC4)CN(CN4CCOCC4)C3=O)cc2)cc1`, the TGI was over 100 µM in the assay with MCF7 breast; 35.4 µM with NCI-H522 lung; 77.3 µM in the assay with KM12 colon; 65.6 µM with SF-295 CNS; 82.9 µM with OVCAR-8 ovarian; over 100 µM with T-47D breast. For the same compound, the TGI with RXF 393 renal was 27.3 µM; with HOP-62 NSCLC, over 57.8 µM; with SNB-19 CNS, 31.2 µM; with ACHN renal, 99.3 µM; in the assay with MOLT-4 leukemia it was over 100 µM; in the assay with SK-MEL-5 melanoma, over 38.9 µM. For the same compound, the TGI is over 70.8 µM with U251 CNS; 61.5 µM in the assay on EKVX NSCLC; 39.3 µM with OVCAR-4 ovarian; over 79.5 µM in the assay on PC-3 prostate; 43.4 µM in the assay with TK-10 renal; over 100 µM in the assay on HS 578T breast.

Regarding `COC(=O)C1=C([C@H]2COC(C)(C)O2)[C@H]2C[C@@H]1[C@@H]1OC(C)(C)O[C@@H]12`, the TGI with MCF7 breast, with NCI-H522 lung, in the assay on KM12 colon, in the assay with SF-295 CNS, in the assay on OVCAR-8 ovarian and with T-47D breast was over 100 µM in each case. The TGI in the assay on RXF 393 renal, with HOP-62 NSCLC, in the assay with SNB-19 CNS, with ACHN renal, in the assay with MOLT-4 leukemia and in the assay on SK-MEL-5 melanoma was over 100 µM throughout. The TGI in the assay on U251 CNS, with EKVX NSCLC, in the assay with OVCAR-4 ovarian, with PC-3 prostate, with TK-10 renal and in the assay on HS 578T breast was over 100 µM throughout.

Take `Brc1cccc(Nc2ncnc3sc4c(c23)CCC(Nc2cccc(Br)c2)C4)c1` (centres undefined): the TGI with MCF7 breast, in the assay on NCI-H522 lung, in the assay with KM12 colon, with SF-295 CNS, with OVCAR-8 ovarian and with T-47D breast was over 100 µM each time. For the same compound, the TGI in the assay on RXF 393 renal, in the assay with HOP-62 NSCLC, in the assay on SNB-19 CNS, with ACHN renal, with MOLT-4 leukemia and in the assay with SK-MEL-5 melanoma was over 100 µM throughout. Moreover, the TGI in the assay on U251 CNS, with EKVX NSCLC, in the assay with OVCAR-4 ovarian, in the assay on PC-3 prostate, in the assay on TK-10 renal and in the assay with HS 578T breast was over 100 µM each time.

Take `COC1/C=C\OC2(C)Oc3c(C)c(O)c4c(O)c(c(/C=N\OCCCc5ccccc5)c(O)c4c3C2=O)NC(=O)/C(C)=C\C=C/C(C)C(O)C(C)C(O)C(C)C(OC(C)=O)C1C` (centres undefined): the TGI in the assay on MCF7 breast is 5.6 µM; in the assay with NCI-H522 lung it was 10.7 µM; in the assay on KM12 colon it was 14 µM; with SF-295 CNS it was 16.3 µM; in the assay with OVCAR-8 ovarian it was 17.8 µM; with T-47D breast, 15.6 µM. Also, the TGI in the assay on RXF 393 renal came out at 6.92 µM; in the assay on HOP-62 NSCLC it was 6.75 µM; in the assay with SNB-19 CNS, 19.7 µM; with ACHN renal, 7.39 µM; in the assay on MOLT-4 leukemia, 10.5 µM; in the assay on SK-MEL-5 melanoma it was 3.55 µM. The TGI was found to be 16 µM in the assay with U251 CNS; 17.7 µM in the assay with EKVX NSCLC; 12.6 µM in the assay on OVCAR-4 ovarian; 11.2 µM with PC-3 prostate; 8.47 µM in the assay with TK-10 renal; 25.2 µM with HS 578T breast.

As to `CCOC(=O)c1c(C)noc1/N=N/N(CCO)CCO`, the TGI in the assay with MCF7 breast is over 100 µM; in the assay with NCI-H522 lung, 70.7 µM; in the assay on KM12 colon it was over 100 µM; in the assay on SF-295 CNS it was over 100 µM; in the assay on OVCAR-8 ovarian, over 100 µM; in the assay on T-47D breast, 39.7 µM. Moreover, the TGI was 50.3 µM in the assay on RXF 393 renal; over 100 µM in the assay on HOP-62 NSCLC; over 100 µM in the assay with SNB-19 CNS; over 100 µM in the assay with ACHN renal; 60.3 µM in the assay with MOLT-4 leukemia; 32.5 µM in the assay with SK-MEL-5 melanoma. Also, the TGI with U251 CNS, in the assay with EKVX NSCLC, with OVCAR-4 ovarian, in the assay with PC-3 prostate, in the assay with TK-10 renal and in the assay on HS 578T breast was over 100 µM each time.
